Measurements: US20230027104A1, “NUTRITIONAL POWDER COMPRISING OLIGOPEPTIDES AND APPLICATIONS THEREOF” (Suzhou Jianyuan Biotechnology Co., Ltd., priority 2021, published 2023)
Marks after values point to notes of the source that are not given here.

Columns and labels:
Assay type in all cases: in vivo, human
[1] = system: healthy middle-aged men and women; assay: Hangover cure and rehabilitation effect after excessive drinking of liquor (self-rated discomfort level); settings: 1 cysteine tablet (1200 mg L-cysteine) before dinner
Protocol: (§1) Thirty-six healthy middle-aged men and women were chosen and divided into four groups, namely, the control group, the cysteine group, the 5 g oligopeptide nutrition group (prepared in Example 3) and the 10 g oligopeptide nutrition group (prepared in Example 3). Ten to twenty minutes before dinner (at time 18:00), 150 mL of plain boiled water at a temperature of 35° C. was prepared for each person in advance. In the control group, the subjects only drank plain boiled water; in the cysteine group, the subjects took 1 cysteine tablet (each comprising 1200 mg L-cysteine, produced by U.S. Now Food) when drinking water; in the 5 g oligopeptide nutritional group, the subjects put 5 g of the oligopeptide nutritional powder into a cup, poured 150 mL of plain boiled water, stirred to dissolve and drink; in the 10 g oligopeptide nutritional group, the subjects put 10 g of the oligopeptide nutritional powder into a cup, poured 150 mL of plain boiled water, stirred to dissolve and drink.
Dinners started at 18:00 and ended at 20:00. Each of 36 subjects drank 200 mL of liquor (Kweichow Moutai Liquor 2018, 53% vol. 106 PROOF) within two hours. […] All subjects' forms were collected, and the subjects' conditions were recorded and analyzed by classification.

[2] = Effect on blood alcohol content after drinking liquor or red wine (breath alcohol tester)
Protocol: Thirty healthy middle-aged men and women were chosen and divided into three groups, namely, the control group, the cysteine group and the 10 g oligopeptide nutrition group. After drinking liquor and red wine, the effects of the oligopeptide nutritional powder on the blood alcohol contents were compared. Ten to twenty minutes before dinner, 150 mL of plain boiled water at a temperature of 35° C. was prepared for each person. In the control group, the subjects only drank plain boiled water; in the cysteine group, the subjects took 1 cysteine tablet (each comprising 1200 mg L-cysteine, produced by U.S. Now Food) when drinking water; in the 10 g oligopeptide nutritional group, the subjects put 10 g of the oligopeptide nutritional powder into a cup, poured 150 mL of plain boiled water, stirred to dissolve and drink.
Dinners started at 18:00 and ended at 20:00. Each of 30 subjects drank 200 mL of liquor (Kweichow Moutai Liquor 2018, 53% vol. 106 PROOF) or 400 mL of red wine (France Saint Arnaud Cabernet Sauvignon 2015, 13.5% vol. Cabernet Sauvignon) within two hours. The subjects' dinners were mainly Chinese stir-fried dishes, including fish, meat and vegetables, with rice as the staple food, and the dinners lasted two hours. Every 30 minutes after the start of drinking, the breath alcohol tester (Mr. Black-03) was used to test the blood alcohol content of each subject for four hours, then test once every two hours; on the 16th hour after drinking, the test was over. The data of the subjects were recorded separately, and the statistical analysis of data was performed by groups. The blood alcohol metabolism curve of each group was completed by Gaussian Fitting method. For oligopeptide nutritional powder, after 4 hours of excessive drinking of liquor and red wine, namely, 2 hours after the end of meals, the blood alcohol content was measured, as shown in Table 3.

[3] = system: healthy middle-aged men and women; assay: Hangover cure and rehabilitation effect after excessive drinking of red wine (self-rated discomfort level); settings: 1 cysteine tablet (1200 mg L-cysteine) before dinner
Protocol: as §1, with “3), and they experienced the hangover cure and rehabilitation effect of the oligopeptide nutritional powder for excessive drinking of red wine.” for “3).”, “dinner,” for “dinner (at time 18:00),”, “person.” for “person in advance.”
Dinners started at 18:00 and ended at 20:00. Each of 36 subjects drank 400 mL of red wine (France Saint Arnaud Cabernet Sauvignon 2015, 13.5% vol. Cabernet Sauvignon). […] All subjects' forms were collected, and the subjects' conditions were recorded and analyzed by classification.

[4] = system: healthy middle-aged men and women; assay: Summary of hangover cure and rehabilitation effects on excessive drinking of liquor and red wine; settings: liquor and red wine summarised, 1200 mg cysteine
Protocol: as §1
Dinners started at 18:00 and ended at 20:00. Each of 36 subjects drank 200 mL of liquor (Kweichow Moutai Liquor 2018, 53% vol. 106 PROOF) within two hours. The subjects' dinners were mainly Chinese stir-fried dishes, including fish, meat and vegetables, with rice as the staple food, and the dinners lasted two hours. In the next morning at 8:00 (12 hours after drinking) and in the third morning at 8:00 (36 hours after drinking), the subjects filled in the forms, indicating personal feelings. The personal feelings included 5 levels, namely, level 0 indicated no discomfort, level 1 indicated slight tiredness, level 2 indicated feeling of dizziness, level 3 indicated headache, level 4 indicated nausea or vomiting, requiring stay in bed. All subjects' forms were collected, and the subjects' conditions were recorded and analyzed by classification.
Thirty-six healthy middle-aged men and women were chosen and divided into four groups, namely, the control group, the cysteine group, the 5 g oligopeptide nutrition group (prepared in Example 3) and the 10 g oligopeptide nutrition group (prepared in Example 3), and they experienced the hangover cure and rehabilitation effect of the oligopeptide nutritional powder for excessive drinking of red wine. Ten to twenty minutes before dinner, 150 mL of plain boiled water at a temperature of 35° C. was prepared for each person. […]
Dinners started at 18:00 and ended at 20:00. […] All subjects' forms were collected, and the subjects' conditions were recorded and analyzed by classification.

N[C@@H](CS)C(=O)O [cysteine tablets, L-cysteine]
subjects with obvious discomfort (>2 degree of discomfort) ([1]; 12 hours after drinking 200 mL liquor): 44.4% | subjects with obvious discomfort ([1]; 36 hours after drinking 200 mL liquor): 22.2% | Blood alcohol content 4 hours after drinking liquor ([2]; 200 mL liquor, 1200 mg cysteine before dinner, breath alcohol tester): 42.3 ± 3.1^b mg/100 mL | Blood alcohol content 4 hours after drinking red wine ([2]; 400 mL red wine, 1200 mg cysteine before dinner, breath alcohol tester): 38.7 ± 6.8^ab mg/100 mL | blood alcohol content versus alcohol content threshold for drunk driving ([2]; within 4 hours of drinking liquor or red wine, cysteine group (1200 mg)): > 20 mg/100 mL | subjects with obvious discomfort (>2 degree of discomfort) ([3]; 12 hours after drinking 400 mL red wine): 44.4% | subjects with obvious discomfort ([3]; 36 hours after drinking 400 mL red wine): 22.2% | Proportion of > degree 2 discomfort 12 hours after drinking wine [4]: 44.4% | Proportion of > degree 2 discomfort 12 hours after drinking wine ([4]; listed as Cysteine): 44.4%^b | Proportion of > degree 2 discomfort 36 hours after drinking wine ([4]; listed as Cysteine): 22.2%^a | Proportion of > degree 2 discomfort 36 hours after drinking wine ([4]; listed as cysteine): 22.2%
